For assay [1], the system named is IL-12. The assay can be described thus: IL-12 production from macrophages induced through administration (Example 9, Table 1). To be noted: LPS 100 ng/ml, IFNγ 100 units/ml. Type of assay: in vivo, DBA/2 mice. As for the experimental part: (§1) The amount of IL-12 was determined through bioassay using cells of human T cell strain 2D6 (J. Leukocyte Biology, vol. 61, p. 346, 1997).
(§2) 2D6 cells which had been incubated in an RPMI 1640 medium containing 500 pg/ml of recombinant human IL-12, 50 μM of 2-mercaptoethanol and 10% FCS (fetal calf serum) were moved to a tube, and centrifugally washed three times with the above-mentioned medium without IL-12 and cell density was adjusted to 1×10^5/ml. The cell suspension was added in an amount of 100 μl each to a 96-well flat bottom plate containing a sample serially diluted in advance with an RPMI 1640 medium containing 50 μM of 2-mercaptoethanol and 10% FCS in an amount of 100 μl each. Subsequently, the mixture was charged into a 5% […] incubator of 37° C., and incubated for 48 hours. For final 6 hours, ^3H-TdR was pulsed (a substance adjusted to 370 kBq/ml in an RPMI 1640 medium containing 50 μM of 2-mercaptoethanol and 10% FCS was added in an amount of 50 μl each). The cells a harvested, and the radioactivity was measured using a β counter (Matrix 96, supplied by Packard).
(§3) The increase in the amounts of oxidative macrophages can easily be determined visually from the fact that almost no reaction product with monochlorobimane is observed, namely, a gray or blue image is provided, and the increase in the amounts of reductive macrophages from the fact that a red or yellow image is provided respectively. […] Meanwhile, the same examination was conducted by harvesting peritoneal exudate cells after 20 hours of the administration of 2 mg of N-acetylcystine (NAC).
(§4) Thus, the peritoneal exudate adherent cells were incubated in the following manner, and the amounts of NO and IL-12 produced in the culture supernatant were measured. With respect to the amount of IL-6, the amount of IL-6 produced spontaneously in the absence of a stimulator was measured.
(§5) Cells: The peritoneal exudate adherent cells obtained by the stimulation, namely, the macrophages were added to a 96-well microplate in an amount of 1×10^5 cells/200 μl each.
(§6) Medium: Phenol red-free RPMI 1640: 200 μl/well
(§7) LPS: Lipopolysaccharide (made by Sigma Co.) (origin: E. coli) 100 ng/ml

Assay [2] concerns NO. The experiment in a line: NO production from macrophages induced through administration (Example 9, Table 1). Type of assay: in vivo, DBA/2 mice. To be noted: LPS 100 ng/ml, IFNγ 100 units/ml. On the procedure: (§8) A stimulator was added to 1×10^5 MΦ, and the incubation was conducted at 37° C. for 2 days in a CO2 incubator. After the completion of the centrifugation, the culture supernatant was collected.
(§9) One hundred microliters of a Griess-Romijn reagent (supplied by Waco Pure Chemical Industries, Ltd.) adjusted to a concentration of 50 mg/ml in distilled water were added to 100 μl of the culture supernatant, and the reaction was conducted at room temperature for 15 minutes. After the completion of reaction, an absorbance of 540 nm was measured. NaNO2 was used as a standard.
as §3, with “This was clarified by harvesting peritoneal exudate cells 20 hours after the completion of the administration, adhering the cells to the plastic surface, then reacting the cells with 10 μM of monochlorobimane at 37° C. for 30 minutes, and analyzing the reaction product with ACAS. The” for “The”
as §4, §5, §6, §7

The subject of assay [3] is IL-6. The experiment in a line: IL-6 production from macrophages induced through administration (Example 9, Table 1). To be noted: produced spontaneously in the absence of a stimulator. Type of assay: in vivo, DBA/2 mice. Further details: concentration or dose not given beside the values. As for the experimental part: (§10) A stimulator was added to 1×10^6 MΦ, and the incubation was conducted at 37° C. for 2 days in a CO2 incubator. After centrifugation, the culture supernatant was collected.
(§11) The amount of IL-6 was determined using IL-6 dependent mouse hybridoma MH60 cells (J. Eur. Immunol., vol. 18, p. 951, 1988). One hundred microliters of the culture supernatant were added to 100 μl of the MH60 cell suspension adjusted to 1×10^5 cells/ml in a 10% FCS-containing RPMI medium, and the mixed solution was incubated at 37° C. for 2 days in a CO2 incubator. Subsequently, 10 μl of MTT (supplied by Sigma Co.) solution adjusted to a concentration of 5 mg/ml in the same medium were added thereto, and the reaction was conducted at 37° C. for 5 hours. After the completion of the reaction, the centrifugation was conducted. The supernatant (160 μl) was removed, and 100 μl of a mixture of hydrochloric acid and propanol were added to the residue. The suspension was conducted using a pipetman to dissolve the cells. Immediately after the dissolution, an absorbance of 570 nm was measured with an immunometer (supplied by Bio-Rad).
as §3, with “This was clarified by harvesting peritoneal exudate cells 20 hours after the completion of the administration, adhering the cells to the plastic surface, then reacting the cells with 10 μM of monochlorobimane at 37° C. for 30 minutes, and analyzing the reaction product with ACAS. The” for “The”
as §4, §5, §6

Assay [4] concerns IL-12. The experiment in a line: IL-12 production by MΦ induced by intraperitoneal injection of substances (Example 7). Type of assay: in vivo, mouse. To be noted: MΦ induced by intraperitoneal injection of the substance; stimulation with LPS and IFNγ. On the procedure:
as §1, §2
It was examined whether there is a difference in the IL-12 production between LNT-induced MΦ and LPS-induced MΦ. […] Next, the same analysis was conducted using MΦ induced by intraperitoneally injecting substances for changing the GSH content in cells.

The test system of assay [5] is IL-12. The experiment in a line: Suppression of IL-12 production of reductive MΦ by DEM or IL-4 (Example 7). Type of assay: cell-based, mouse. As for the experimental part:
as §1, §2
As mentioned above, IL-12 was produced only in reductive MΦ having the high GSH content in cells. It was examined whether this production is suppressed by converting MΦ to oxidative MΦ. That is, it was analyzed whether the IL-12 production is suppressed by exposing lentinan-induced MΦ with DEM.
(§12) IL-4 is a cytokine which acts on MΦ suppressively. IL-4 is considered to have an opposite function to IL-12 in the Th1/Th2 balance as well. Accordingly, it was examined whether IL-4 acts suppressively on the IL-12 production by reductive MΦ.

Assay [6] relates to peritoneal exudate cells (macrophages). The experiment in a line: Induction of oxidative or reductive macrophages by administration, monochlorobimane/ACAS (Example 9). Type of assay: in vivo, DBA/2 mice. To be noted: Day 1 and Day 2, cells harvested 20 hours later; 20 μg (NAC-OMe)2 or (NAC)2, 10 μg acetylgliotoxin, 2 mg NAC intraperitoneally; 40 μg dexamethasone subcutaneously. As for the experimental part:
as §3, with “This was clarified by harvesting peritoneal exudate cells 20 hours after the completion of the administration, adhering the cells to the plastic surface, then reacting the cells with 10 μM of monochlorobimane at 37° C. for 30 minutes, and analyzing the reaction product with ACAS. The” for “The”

Assay [7] deals with IL-6. The assay can be described thus: IL-6 production of MΦ pretreated with IL-4 (Example 7). Type of assay: cell-based, mouse. On the procedure: as §10, §11
Further, MΦ of which the GSH content in cells was increased by the stimulation with GSH-OEt and MΦ of which the GSH content in cells was decreased by the stimulation of DEM were pretreated with IL-4, and IFNγ was exposed thereon to induce the IL-6 production. […]

Assay [8] deals with reductive glutathione in MΦ. The assay can be described thus: Content of reductive glutathione in MΦ treated with IL-4, ACAS image analysis (Example 7). Type of assay: cell-based, mouse. Conditions: image analysis by ACAS. As for the experimental part: Three-hundred microliters of a cell suspension adjusted concentration of 3×10^5 cells/ml in an RPMI 1640 medium (phenol red-free) were charged into a chambered coverglass (#136439, supplied by Nunc), and incubated at 37° C. for 2 hours using a CO2 incubator. The culture solution was washed with the medium, and 300 μl of monochlorobimane (supplied by Molecular Plobe) adjusted to 10 μM in the same medium were added thereto. The mixture was charged into a CO2 incubator of 37° C., and the reaction was conducted for 30 minutes. The fluorescent intensity was measured with ACAS. In ACAS, a UV laser was used.
as §12

Assay [9] deals with NO. The assay can be described thus: NO production of MΦ pretreated with IL-4 (Example 7). Type of assay: cell-based, mouse. As for the experimental part:
as §8, §9
Reductive MΦ increases the NO production by the IFNγ stimulation in comparison with oxidative MΦ, and rather suppresses the IL-6 production. IFNγ is known to be a cytokine produced from Th1 cells. […] Further, MΦ of which the GSH content in cells was increased by the stimulation with GSH-OEt and MΦ of which the GSH content in cells was decreased by the stimulation with DEM were pretreated with IL-4, and IFNγ thereafter and LPS stimulation was carried out to induce NO production.

Structures can show the parent of a compound that is named as a salt.

On to `C[C@@H]1C[C@H]2[C@@H]3CCC4=CC(=O)C=C[C@]4(C)[C@@]3(F)[C@@H](O)C[C@]2(C)[C@@]1(O)C(=O)CO` [Dexamethasone, dexamethasone, reference compound], for which the “IL-12, amount produced relative to that of control group” value with IL-12 [1] was 5%. Also, the “NO, amount produced relative to that of control group” value in the assay with NO [2] stood at 45%. Further, in the assay on IL-6 [3], the “IL-6, amount produced relative to that of control group” value amounted to 1020%.

Consider `CCOC(=O)/C=C\C(=O)OCC` [DEM, diethyl maleate, reference compound], for which the IL-12 production result with IL-12 [4] is on record as “produced only in MΦ derived from GSH-OEt administered mice”. Further, the “IL-12 production from lentinan-induced MΦ with the addition of DEM” value in the assay with IL-12 [5] (without DEM 828 pg/ml) was 0 pg/mL.

As for `CC(=O)O[C@H]1C=CC=C2C[C@]34SS[C@](CO)(C(=O)N3[C@@H]21)N(C)C4=O` [Acetylgliotoxin], the “IL-12, amount produced relative to that of control group” value in the assay with IL-12 [1] was determined as 14%. In addition, in the assay with NO [2], the “NO, amount produced relative to that of control group” value was 22%. Besides, the “type of macrophages induced (monochlorobimane, ACAS)” value in [6] was “Oxidative macrophages were induced”. The “IL-6, amount produced relative to that of control group” value in the assay with IL-6 [3] was 450%.

B1: IL-4: interleukin 4, a cytokine which acts on MΦ suppressively; typical Th2 cytokine (protein, UniProt P05112 25-153, looked up)
Interleukin-4: HKCDITLQEIIKTLNSLTEQKTLCTELTVTDIFAASKNTTEKETFCRAATVLRQFYSHHEKDTRCLGATAQQFHRHKQLIRFLKRLDRNLWGLAGLNSCPVKEANQSTLENFLERLKTIMREKYSKCSS
With B1, the “IL-6 production of GSH-OEt-stimulated and DEM-stimulated MΦ pretreated with IL-4” value in the assay on IL-6 [7] (IFNγ exposure, in comparison with IL-4-untreated MΦ) is reported as “increased”. Further, the “IL-6 production with IFNγ after pretreatment with IL-4” value in the assay on IL-6 [7] (resident MΦ, LPS-induced MΦ and LNT-induced MΦ) is “markedly increased”. The “content of reductive glutathione in MΦ” value in assay [8] is recorded as “markedly decreases”. Moreover, the “NO production of GSH-OEt-stimulated and DEM-stimulated MΦ pretreated with IL-4” value with NO [9] (IFNγ and LPS stimulation, both subsets of MΦ) is given as “remarkably suppressed”. In the assay with NO [9] (IFNγ stimulation), the “IFNγ NO production from MΦ pretreated with IL-4 in comparison with untreated MΦ” value is listed as “significantly suppressed”. For the same molecule, the “IL-12 production by GSH-OEt administered mouse MΦ after pretreatment with IL-4” value in the assay on IL-12 [5] (without IL-4 490 pg/ml) came out at 258 pg/mL. Moreover, in the assay on IL-12 [5] (without IL-4 1,580 pg/ml), the “IL-12 production by LNT-induced MΦ after pretreatment with IL-4” value amounted to 370 pg/mL.

(Values after US7378387B2, “Method of suppressing immune response by reducing intracellular content of glutathione in macrophages and monocytes” (Ajinomoto Co., Inc., priority 1997, dated 2008).)
